Read-outs that look alike come from different tables or passages of the source.
Assays:
HT-29 = experiment: cells
How it was run: (§1)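 Colorimetric SRB read (490 nm) on triplicate wells after 48 h at 37 °C, 5% CO2. Dose range 10 to 10^−8 μg/ml; 5×10^3 cells/well pre-attached 18 h.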

A-549 = experiment: cells
How it was run: as §1

LoVo = experiment: cells
How it was run: as §1

SK-BR-3 = experiment: Inhibition of cells growth by colorimetric assay (SRB)
Method: (§2) This form of the assay employs 96 well cell culture microplates of 9 mm diameter (Faircloth, 1988; Mosmann, 1983). Most of the cell lines are obtained from American Type Culture Collection (ATCC) derived from different human cancer types.
(§3) Cells are maintained in RPMI 1640 10% FBS, supplemented with 0.1 g/l penicillin and 0.1 g/l streptomycin sulfate and then incubated at 37° C., 5% CO2 and 98% humidity. For the experiments, cells were harvested from subconfluent cultures using trypsin and resuspended in fresh medium before plating.
(§4) Cells are seeded in 96 well microtiter plates, at 5×10^3 cells per well in aliquots of 195 μl medium, and they are allowed to attach to the plate surface by growing in drug free medium for 18 hours. Afterward, samples are added in aliquots of 5 μl in a ranging from 10 to 10^−8 μg/ml, dissolved in DMSO/EtOH/PBS (0.5:0.5:99). After 48 hours exposure, the antitumor effect are measured by the SRB methodology: cells are fixed by adding 50 μl of cold 50% (wt/vol) trichloroacetic acid (TCA) and incubating for 60 minutes at 4° C. Plates are washed with deionized water and dried. One hundred μl of SRB solution (0.4% wt/vol in 1% acetic acid) is added to each microtiter well and incubated for 10 minutes at room temperature. Unbound SRB is removed by washing with 1% acetic acid. Plates are air dried and bound stain is solubilzed with Tris buffer. Optical densities are read on a automated spectrophotometric plate reader at a single wavelength of 490 nm.
(§5) The values for mean +/− SD of data from triplicate wells are calculated. Some parameters for cellular responses can be calculated: GI=growth inhibition, TGI=total growth inhibition (cytostatic effect) and LC=cell killing (cytotoxic effect).

IGROV-1 = experiment: as above
Method: as §2, §3, §4, §5

LoVo-Dox = experiment: as above
Method: as §2, §3, §4, §5

PANC-1 = experiment: as above
Method: as §2, §3, §4, §5

HeLa = experiment: as above
Method: as §2, §3, §4, §5

SK-MEL-28 = experiment: as above
Method: as §2, §3, §4, §5

DU-145 = experiment: as above
Method: as §2, §3, §4, §5

HeLa-APL = experiment: as above
Method: as §2, §3, §4, §5

LNCaP = experiment: as above
Method: as §2, §3, §4, §5

K-562 = experiment: as above
Method: as §2, §3, §4, §5

IGROV-ET = experiment: as above
Method: as §2, §3, §4, §5

## C=CCN1[C@@H]2c3c(cc(C)c(OC)c3O)C[C@H]1[C@H](O)N1C2[C@@H]2SC[C@]3(NCCc4cc(O)c(OC)cc43)C(=O)OC[C@H]1c1c3c(c(C)c(OC(C)=O)c12)OCO3 (stereo partly drawn) [compound 67]
HT-29; Homo sapiens, HT-29, 48 h, read-out: HT29 GI50
  GI50: 37.9 nM
HT-29; Homo sapiens, HT-29, 48 h, read-out: HT29 LC50
  CC50: 11900 nM
HT-29; Homo sapiens, HT-29, 48 h, read-out: HT29 TGI
  IC (TGI): 102 nM
A-549; Homo sapiens, A549, 48 h, read-out: A549 GI50
  GI50: 32.7 nM
A-549; Homo sapiens, A549, 48 h, read-out: A549 LC50
  CC50: 797 nM
A-549; Homo sapiens, A549, 48 h, read-out: A549 TGI
  IC (TGI): 68.7 nM
LoVo; Homo sapiens, LoVo, 48 h, read-out: LOVO GI50
  GI50: 28.6 nM
LoVo; Homo sapiens, LoVo, 48 h, read-out: LOVO LC50
  CC50: 10600 nM
LoVo; Homo sapiens, LoVo, 48 h, read-out: LOVO TGI
  IC (TGI): 73 nM
SK-BR-3; Homo sapiens, SK-BR-3, 48 h, read-out: SK-BR3 GI50
  GI50: 8.71 nM
SK-BR-3; Homo sapiens, SK-BR-3, 48 h, read-out: SK-BR3 LC50
  CC50: 284 nM
SK-BR-3; Homo sapiens, SK-BR-3, 48 h, read-out: SK-BR3 TGI
  IC (TGI): 37.4 nM
IGROV-1; Homo sapiens, IGROV-1, 48 h, read-out: IGROV GI50
  GI50: 31.2 nM
IGROV-1; Homo sapiens, IGROV-1, 48 h, read-out: IGROV LC50
  CC50: 685 nM
IGROV-1; Homo sapiens, IGROV-1, 48 h, read-out: IGROV TGI
  IC (TGI): 78.6 nM
LoVo-Dox; Homo sapiens, 48 h, read-out: LOVO-DOX GI50
  GI50: 368 nM
LoVo-Dox; Homo sapiens, 48 h, read-out: LOVO-DOX LC50
  CC50: 12700 nM
LoVo-Dox; Homo sapiens, 48 h, read-out: LOVO-DOX TGI
  IC (TGI): 975 nM
PANC-1; Homo sapiens, PANC-1, 48 h, read-out: PANC-1 GI50
  GI50: 27.4 nM
PANC-1; Homo sapiens, PANC-1, 48 h, read-out: PANC-1 LC50
  CC50: 2780 nM
PANC-1; Homo sapiens, PANC-1, 48 h, read-out: PANC-1 TGI
  IC (TGI): 92.7 nM
HeLa; Homo sapiens, HeLa, 48 h, read-out: HELA GI50
  GI50: 30.2 nM
HeLa; Homo sapiens, HeLa, 48 h, read-out: HELA LC50
  CC50: 395 nM
HeLa; Homo sapiens, HeLa, 48 h, read-out: HELA TGI
  IC (TGI): 67.4 nM
SK-MEL-28; Homo sapiens, SK-MEL-28, 48 h, read-out: MEL-28 GI50
  GI50: 20.4 nM
SK-MEL-28; Homo sapiens, SK-MEL-28, 48 h, read-out: MEL-28 LC50
  CC50: 100 nM
SK-MEL-28; Homo sapiens, SK-MEL-28, 48 h, read-out: MEL-28 TGI
  IC (TGI): 45.3 nM
DU-145; Homo sapiens, DU-145, 48 h, read-out: DU145 GI50
  GI50: 35.9 nM
DU-145; Homo sapiens, DU-145, 48 h, read-out: DU145 LC50
  CC50: 3500 nM
DU-145; Homo sapiens, DU-145, 48 h, read-out: DU145 TGI
  IC (TGI): 75.4 nM
HeLa-APL; Homo sapiens, 48 h, read-out: HELA-APL GI50
  GI50: 29.7 nM
HeLa-APL; Homo sapiens, 48 h, read-out: HELA-APL LC50
  CC50: 327 nM
HeLa-APL; Homo sapiens, 48 h, read-out: HELA-APL TGI
  IC (TGI): 64.7 nM
LNCaP; Homo sapiens, LNCaP, 48 h, read-out: LNCAP GI50
  GI50: 3 nM
LNCaP; Homo sapiens, LNCaP, 48 h, read-out: LNCAP LC50
  CC50: 37.4 nM
LNCaP; Homo sapiens, LNCaP, 48 h, read-out: LNCAP TGI
  IC (TGI): 9 nM
K-562; Homo sapiens, K562, 48 h, read-out: K562 GI50
  GI50: 33.9 nM
K-562; Homo sapiens, K562, 48 h, read-out: K562 LC50
  CC50: 2090 nM
K-562; Homo sapiens, K562, 48 h, read-out: K562 TGI
  IC (TGI): 39.7 nM
IGROV-ET; Homo sapiens, 48 h, read-out: IGROV-ET GI50
  GI50: 26.8 nM
IGROV-ET; Homo sapiens, 48 h, read-out: IGROV-ET LC50
  CC50: 2680 nM
IGROV-ET; Homo sapiens, 48 h, read-out: IGROV-ET TGI
  IC (TGI): 62.7 nM

## C=CCN1C2Cc3cc(C)c(OC)c(O)c3C1C1C3SCC(NC(C)=O)C(=O)OCC(c4c5c(c(C)c(OC(C)=O)c43)OCO5)N1C2C#N (stereo not drawn) [compound 24]
HT-29; HT29, SRB, 48 hours exposure
  TGI HT29: 1.39E−08 Molar
HT-29; read-out: GI50 HT29, HT29, SRB, 48 hours exposure
  GI50: 5.17 nM
HT-29; read-out: LC50 HT29, HT29, SRB, 48 hours exposure
  CC50: 14500 nM
A-549; A549, SRB, 48 hours exposure
  TGI A549: 4.62E−08 Molar
A-549; read-out: GI50 A549, A549, SRB, 48 hours exposure
  GI50: 21.9 nM
A-549; read-out: LC50 A549, A549, SRB, 48 hours exposure
  CC50: 97.4 nM
LoVo; LOVO, SRB, 48 hours exposure
  TGI LOVO: 8.21E−08 Molar
LoVo; read-out: GI50 LOVO, LOVO, SRB, 48 hours exposure
  GI50: 26.1 nM
LoVo; read-out: LC50 LOVO, LOVO, SRB, 48 hours exposure
  CC50: 14500 nM
SK-BR-3; SK-BR3, SRB, 48 hours exposure
  TGI SK-BR3: 6.38E−08 Molar
SK-BR-3; read-out: GI50 SK-BR3, SK-BR3, SRB, 48 hours exposure
  GI50: 24.8 nM
SK-BR-3; read-out: LC50 SK-BR3, SK-BR3, SRB, 48 hours exposure
  CC50: 269 nM
IGROV-1; IGROV, SRB, 48 hours exposure
  TGI IGROV: 3.18E−08 Molar
IGROV-1; read-out: GI50 IGROV, IGROV, SRB, 48 hours exposure
  GI50: 8.21 nM
IGROV-1; read-out: LC50 IGROV, IGROV, SRB, 48 hours exposure
  CC50: 110 nM
LoVo-Dox; LOVO-DOX, SRB, 48 hours exposure
  TGI LOVO-DOX: 1.74E−06 Molar
LoVo-Dox; read-out: GI50 LOVO-DOX, LOVO-DOX, SRB, 48 hours exposure
  GI50: 115 nM
LoVo-Dox; read-out: LC50 LOVO-DOX, LOVO-DOX, SRB, 48 hours exposure
  CC50: 14500 nM
PANC-1; PANC-1, SRB, 48 hours exposure
  TGI PANC-1: 9.19E−08 Molar
PANC-1; read-out: GI50 PANC-1, PANC-1, SRB, 48 hours exposure
  GI50: 30.1 nM
PANC-1; read-out: LC50 PANC-1, PANC-1, SRB, 48 hours exposure
  CC50: 14500 nM
HeLa; HELA, SRB, 48 hours exposure
  TGI HELA: 4.76E−08 Molar
HeLa; read-out: GI50 HELA, HELA, SRB, 48 hours exposure
  GI50: 20.3 nM
HeLa; read-out: LC50 HELA, HELA, SRB, 48 hours exposure
  CC50: 112 nM
SK-MEL-28; MEL-28, SRB, 48 hours exposure
  TGI MEL-28: 4.27E−08 Molar
SK-MEL-28; read-out: GI50 MEL-28, MEL-28, SRB, 48 hours exposure
  GI50: 20.1 nM
SK-MEL-28; read-out: LC50 MEL-28, MEL-28, SRB, 48 hours exposure
  CC50: 90.9 nM
DU-145; DU145, SRB, 48 hours exposure
  TGI DU145: 5.23E−08 Molar
DU-145; read-out: GI50 DU145, DU145, SRB, 48 hours exposure
  GI50: 27.8 nM
DU-145; read-out: LC50 DU145, DU145, SRB, 48 hours exposure
  CC50: 125 nM
HeLa-APL; HELA-APL, SRB, 48 hours exposure
  TGI HELA-APL: 4.65E−08 Molar
HeLa-APL; read-out: GI50 HELA-APL, HELA-APL, SRB, 48 hours exposure
  GI50: 20.3 nM
HeLa-APL; read-out: LC50 HELA-APL, HELA-APL, SRB, 48 hours exposure
  CC50: 107 nM
LNCaP; LNCAP, SRB, 48 hours exposure
  TGI LNCAP: 2.53E−08 Molar
LNCaP; read-out: GI50 LNCAP, LNCAP, SRB, 48 hours exposure
  GI50: 8.4 nM
LNCaP; read-out: LC50 LNCAP, LNCAP, SRB, 48 hours exposure
  CC50: 64.4 nM
K-562; K562, SRB, 48 hours exposure
  TGI K562: 1.71E−08 Molar
K-562; read-out: GI50 K562, K562, SRB, 48 hours exposure
  GI50: 4.07 nM
K-562; read-out: LC50 K562, K562, SRB, 48 hours exposure
  CC50: 93.8 nM
IGROV-ET; IGROV-ET, SRB, 48 hours exposure
  TGI IGROV-ET: 6.20E−08 Molar
IGROV-ET; read-out: GI50 IGROV-ET, IGROV-ET, SRB, 48 hours exposure
  GI50: 29.5 nM
IGROV-ET; read-out: LC50 IGROV-ET, IGROV-ET, SRB, 48 hours exposure
  CC50: 130 nM

Reference: patent US7767659B2, “Synthesis of naturally occurring ecteinascidins and related compounds” (Pharma Mar, S.A., priority 2002, dated 2010)
